Columns and labels:
GABAB receptor [1] = target: T1, GABAB receptor (Rattus norvegicus, UniProt Q9Z0U4); assay: 3H-GABA binding assay for GABAB, rat cortex membranes; conditions: up to concentrations of 1 mM
T1 construct: using crude synaptic membranes prepared from rat cortex; from tissue; host or cells: rat cortex, crude synaptic membranes
Protocol: Following incubation by rapid filtration through GF/C unifilters (PerkinElmer, Boston, MA, USA), using a 96-well Packard cell-harvester (PerkinElmer) and three fast washes with ice-cold binding buffer, microscint scintillation fluid (PerkinElmer) was added to the dried filters, and the amount of filter-bound radioactivity was quantified in a Packard TopCount microplate scintillation counter (PerkinElmer). […] The binding reactions were terminated by rapid filtration through GF/C filters (Whatman), soaked in 0.1% polyethylene imine, using a Brandell 48-well harvester and rapid washing with ice-cold binding buffer. […] Data are presented as % specific binding (of control), and IC50 or Ki values calculated by means of non-linear regression curve-fitting and the Cheng-Prusoff equation, respectively.

MCP-1, IL-6 and IL-1a = assay: Quantification of cytokines in plasma after photothrombotic focal ischemia; assay type: in vivo, mice; conditions: 4 hrs after focal ischemia
Protocol: Detection of MCP-1 (monocyte chemotactant protein-1), IL-6 (interleukin-6) and IL-1a (interleukin-1a) was performed using a LEGENDplex assay kit according to the manufacturers' instructions (BioPlex, BioLegend, San Diego, CA, USA).
To evaluate the inflammatory response at early time points, blood samples were collected 4 hrs after induction of a focal ischemic event.

[2] = tested on: wild-type and GABAB receptor knock-out mice; assay: Temperature recording (hypothermia) in mice; assay type: in vivo; conditions: 500 mg/kg i.p.; wild-type or GABAB knock-out mice
Protocol: Mice were pre-treated with saline injections (0.9% saline) i.p. for 4 days prior to the experiment to minimize stress on the day of the experiment. Experiments were conducted in a quiet room, in which mice were left undisturbed for at least two hrs prior to the experiment. After the i.p. injections, mice were left in their home cages for two hrs, had core body temperature recorded, and were then euthanized. The core body temperature was measured rectally by a thermometer (model DM 852; ELLAB Instruments; Copenhagen, Denmark) via a lubricated thermistor probe (model PRA-22002-A, 2.2 mm diameter; ELLAB Instruments). Mice were held at the base of the tail and measured until a stable temperature measurement was obtained.
By contrast, compound A had no effect on hypothermia in either wild-type or knock-out mice.

[3] = tested on: photothrombotic focal ischemia in C57BL/6J mice; assay: Photothrombotic mouse model of focal ischemia, infarct volume; assay type: in vivo; conditions: for infarct volume: saline 9.38
Protocol: All procedures were performed in accordance with the guidelines on the care and use of laboratory animals set out by the University of Otago, Animal Research Committee and the Guide for Care and Use of Laboratory Animals (NIH Publication No. 85-23, 1996). All in vivo studies were approved by the University of Otago Animal Ethics Committee and are reported according to the ARRIVE (Animal Research: Reporting In Vivo Experiments) guidelines. The photochemical cortical lesion model resembles situations of acute brain injury related clinically to stroke and traumatic brain injury (TBI). Focal ischemia was induced by photothrombosis in male C57BL/6J mice (8-10 weeks) weighing ˜23-30 g as previously described (Clarkson et al., 2010). Under anesthesia with isoflurane (2% to 2.5% in O2) mice were placed in a stereotactic apparatus, the skull exposed through a midline incision, cleared of connective tissue and dried. A cold light source (KL1500 LCD, Zeiss, Auckland, New Zealand) attached to a 40× objective providing a 2-mm diameter illumination was positioned 1.5 mm lateral from bregma. Then, 0.2 ml of Rose Bengal (Sigma-Aldrich, Auckland, New Zealand; 10 mg/ml in normal saline) was administered i.p. After 5 min, the brain was illuminated through the exposed intact skull for 15 min, while keeping body temperature at 37.0±0.3° C. degrees using a heating pad (Harvard apparatus, Holliston, MA, USA). The skin was glued and animals left in a cage placed on a heating pad during the wake-up phase. Mice were housed under a 12-hr light/dark cycle with ad libitum access to food and water. Further, the mice were monitored and weighed on a daily basis.
For in vivo studies, all compounds were dissolved in a mixture of sterile saline and H2O to obtain isotonicity (0.9%) and administered as 10 mg/ml and 10 μl of solution per gram mouse body weight. The injection of compound (i.p.) was performed 30 min, 3, 6 or 12 hrs after induction of the photothrombotic stroke. The vehicle groups received a corresponding volume of saline (0.9%) at the same time points (30 min, 3, 6 or 12 hrs).
For quantification of the infarcted area, animals were perfused with saline and then with 4% paraformaldehyde (PFA) and the brain dissected out and submerged in 4% PFA for post-fixing overnight. Then the brains were moved to 30% sucrose solution and kept at 4° C. until processing. Brains were cut in 30 μm sections, free-floating in anti-freeze media. Sections were mounted, stained for cresyl violet and the infarct volumes determined by measuring every 6th section through the entire infarct as described in Lie et al (2017). All analyses were performed by an observer blinded to the treatment groups. Brains from the pMCAO studies were flash-frozen in CO2 (gas) and processed into six parallel series of sections (30 μm). Separate series were collected on glass slides and used for infarct size analysis or in Eppendorf tubes and used for qPCR. The glass slides were stored at −80° C. until further processing, and then Cresyl-Violet stained and quantified as described for the photothrombotic photochemical method.

GABAB receptor [4] = target: T1, GABAB receptor; conditions: cited from earlier work
[5] = 175 mg/kg i.p. 30 min after stroke, day 3

T1 sequence (Q9Z0U4 17-960 limits assumed): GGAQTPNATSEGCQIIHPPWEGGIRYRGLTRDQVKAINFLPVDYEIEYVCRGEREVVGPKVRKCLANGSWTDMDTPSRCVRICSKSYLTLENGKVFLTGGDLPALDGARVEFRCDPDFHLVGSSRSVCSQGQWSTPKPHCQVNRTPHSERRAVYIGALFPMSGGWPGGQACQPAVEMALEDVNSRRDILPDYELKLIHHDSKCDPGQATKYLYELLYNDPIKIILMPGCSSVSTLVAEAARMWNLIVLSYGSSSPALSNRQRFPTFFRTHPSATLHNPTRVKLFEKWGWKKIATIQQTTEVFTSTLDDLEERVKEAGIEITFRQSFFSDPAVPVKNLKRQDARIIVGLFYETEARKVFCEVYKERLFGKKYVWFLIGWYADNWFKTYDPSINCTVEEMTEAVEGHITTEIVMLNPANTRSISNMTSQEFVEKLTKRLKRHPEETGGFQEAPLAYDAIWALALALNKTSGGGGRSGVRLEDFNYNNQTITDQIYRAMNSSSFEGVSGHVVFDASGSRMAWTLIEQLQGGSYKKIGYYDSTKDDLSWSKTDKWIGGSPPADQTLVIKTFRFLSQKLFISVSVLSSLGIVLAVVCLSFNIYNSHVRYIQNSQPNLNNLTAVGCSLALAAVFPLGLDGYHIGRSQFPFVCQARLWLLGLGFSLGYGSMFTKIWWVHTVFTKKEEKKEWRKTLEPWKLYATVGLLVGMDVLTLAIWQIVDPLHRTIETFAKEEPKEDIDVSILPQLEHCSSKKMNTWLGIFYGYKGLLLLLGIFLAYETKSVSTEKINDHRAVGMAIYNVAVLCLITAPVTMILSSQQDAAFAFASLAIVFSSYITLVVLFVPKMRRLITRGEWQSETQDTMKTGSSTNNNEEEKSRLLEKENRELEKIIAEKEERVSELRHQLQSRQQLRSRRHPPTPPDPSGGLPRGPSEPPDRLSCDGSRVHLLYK
T1 sequence (O88871 41-940 partner): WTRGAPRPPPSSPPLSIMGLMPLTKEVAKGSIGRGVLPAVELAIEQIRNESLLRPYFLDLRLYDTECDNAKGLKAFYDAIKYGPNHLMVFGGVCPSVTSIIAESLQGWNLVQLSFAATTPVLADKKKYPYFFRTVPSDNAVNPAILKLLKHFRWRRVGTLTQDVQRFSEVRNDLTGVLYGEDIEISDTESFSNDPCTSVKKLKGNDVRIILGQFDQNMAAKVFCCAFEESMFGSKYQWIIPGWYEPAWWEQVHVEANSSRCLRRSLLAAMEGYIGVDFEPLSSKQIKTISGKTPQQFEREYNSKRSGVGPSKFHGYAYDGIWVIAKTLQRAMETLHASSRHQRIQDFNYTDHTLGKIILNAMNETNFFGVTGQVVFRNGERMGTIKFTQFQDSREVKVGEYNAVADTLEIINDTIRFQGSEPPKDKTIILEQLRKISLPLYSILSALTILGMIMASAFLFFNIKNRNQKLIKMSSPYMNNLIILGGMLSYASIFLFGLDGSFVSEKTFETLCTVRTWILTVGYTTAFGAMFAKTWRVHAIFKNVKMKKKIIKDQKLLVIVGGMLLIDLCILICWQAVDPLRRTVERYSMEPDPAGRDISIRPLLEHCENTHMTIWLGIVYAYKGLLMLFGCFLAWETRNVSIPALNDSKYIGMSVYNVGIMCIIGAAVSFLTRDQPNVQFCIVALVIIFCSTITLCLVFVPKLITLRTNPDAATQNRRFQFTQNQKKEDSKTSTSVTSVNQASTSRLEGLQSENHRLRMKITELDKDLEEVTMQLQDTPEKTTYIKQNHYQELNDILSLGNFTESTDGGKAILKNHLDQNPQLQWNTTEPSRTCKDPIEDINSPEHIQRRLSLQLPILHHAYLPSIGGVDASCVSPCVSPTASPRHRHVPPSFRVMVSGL

O=C(O)C1=CC(O)CC1 (stereo not drawn) [Compound A, 3-hydroxycyclopent-1-enecarboxylic acid]
inhibition of 3H-GABA binding to GABAB receptor (GABAB receptor [1]): no ability to compete
MCP-1 plasma levels (MCP-1, IL-6 and IL-1a): tendency towards a decrease
IL-1a plasma levels (MCP-1, IL-6 and IL-1a; vs saline): did not significantly affect
IL-6 plasma levels (MCP-1, IL-6 and IL-1a; vs saline): significantly lowered
effect on body temperature (hypothermia) [2]: no effect
infarct volume ([3]; 17.5 mg/kg i.p. 30 min after stroke, day 3, not significant): 8.95 mm^3
decrease of infarct size vs saline ([3]; 90 mg/kg 3 hrs after stroke): 51%
infarct size ([3]; 90 mg/kg 3 hrs after stroke, saline 5.55): 2.68 mm^3
decrease of infarct size vs saline ([3]; 175 mg/kg i.p. 3, 6 or 12 hrs after stroke): 33-43%
reduction of infarct volume vs saline [3, 5]: 30%
infarct volume [3, 5]: 6.56 mm^3
infarct size ([3]; 175 mg/kg i.p. 3 hrs after stroke, saline 5.51): 3.12 mm^3
infarct size ([3]; 175 mg/kg i.p. 6 hrs after stroke, saline 5.51): 3.68 mm^3
infarct size ([3]; 175 mg/kg i.p. 12 hrs after stroke, saline 5.51): 3.58 mm^3
affinity for the GABAB binding site (GABAB receptor [4]): does not display any affinity
